Results on 10 molecules are retold here after the SangsterLogP compilation.

This data set is described as follows: method code SF-AS, from DOI: 10.1016/j.jct.2013.01.022. Particulars: pH 7.4.
Usually logD stands for the decadic logarithm of the distribution of all forms, ionised or not, between an organic phase and buffer at a given pH. Read a high logD as higher lipophilicity. `CC(C)c1ccc(NC2=NCCC3(CCCCC3)S2)cc1` registered a logD of 1.75.
For `Brc1ccc(NC2=NCCC3(CCCCC3)S2)cc1` the value was 2.43.
For `Cc1ccc(NC2=NCCC3(CCCCC3)S2)cc1`, the logD was 1.88.
Take `Cc1ccc(NC2=NCCC3(CCCCC3)S2)cc1Cl`: the logD came to 2.54.
The figure for `CCc1ccc(NC2=NCCC3(CCCCC3)S2)cc1` is 2.22.
With `O=C(NC1=NCCC2(CCCCC2)S1)c1ccccc1`, the logD turned out to be 1.55.
Take `Clc1ccc(NC2=NCCC3(CCCCC3)S2)cc1`: the logD was determined as 2.4.
In turn, `CC(=O)c1ccc(NC2=NCCC3(CCCCC3)S2)cc1` registered a logD of 1.89.
The figure for `FC(F)(F)c1ccc(NC2=NCCC3(CCCCC3)S2)cc1` is 2.45; for `c1ccc(NC2=NCCC3(CCCCC3)S2)cc1` it is 1.27.
